Experimental data as given in publication PMC10447463, “Data-mining unveils structure–property–activity correlation of viral infectivity enhancing self-assembling peptides” (Nature Communications, 2023).
Read-outs that look alike come from different tables or passages of the source.

Columns and labels:
[1] = tested on: HIV-1 infection of TZM-bl cells; experiment: HIV-1 infectivity enhancement assay, β-galactosidase luminescence; assay type: cell-based
[2] = assay type: physicochemical; details: for ThT Cat. / ThT-Fluorescence (categorical): ThT-active if fluorescence at least twice the control
In short: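 Fibrils (1 mg/mL solution) were mixed with 50 µM ThT in PBS for 15 min at RT, and fluorescence was read at λex 440/λem 488 nm against a PBS blank, as a triplicate mean ± SD. Zeta potential came from electrophoretic mobility (Smoluchowski) after 1 d aggregation at 1 mg/mL in PBS pH 7.4, diluted into 1 mM KCl.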

[3] = Zeta-potential measurement; assay type: physicochemical; details: for Zeta Pot. / mV / Zeta-Potential / mV: mean; for Zeta Pot. / mV: Std in separate column; for Zeta-pot. / mV: zeta potential of peptide, Fig S15 source data; for Zeta pot. / mV: 1 mg/mL in PBS pH 7.4 from 10 mg/mL DMSO stock, 1 d RT, 60 µL diluted in 600 µL 1 mM KCl, Zetasizer Nano ZS, Smoluchowski, mean of triplicate; for Zeta-Potential / mV: Figure 6C
In short: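 Charge on peptide aggregates was assessed by electrophoretic mobility in 1 mM KCl, converted per Smoluchowski. Prior aggregation: 1 mg/mL, pH 7.4 PBS, 1 d, RT.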

[4] = infectivity class (low / medium / high) of each library peptide; main list in c1-c6, same classes repeated in sub-lists of sequences containing the hydrophobicity/charge patterns P+,H0,P+,H0,P0,H0,P0; P+,H0,P0,H0,P0,H0,P0; P+,H0,P0,H0
[5] = log10 of HIV-1 infection of TZM-bl cells relative to EF-C; Fig S15 source data; asymmetric std dev errors
[6] = HIV-1 infection relative to EF-C; Fig 23 plot, panels A and B; mean of 3 values
[7] = HIV-1 infection relative to EF-C; Fig 23 plot, single data point, replicate 1
[8] = HIV-1 infection relative to EF-C; Fig 23 plot, single data point, replicate 2
[9] = HIV-1 infection relative to EF-C; Fig 23 plot, single data point, replicate 3
[10] = log10 of infection relative to EF-C, Figure 6C
[11] = n-fold infection vs virus only, relative to that of EF-C, 1.3 µM peptide

Substance | infectivity [1, 4] | Log10 Inf. rel. to EF-C [1, 5] | Zeta-pot. / mV [3] | Log10 Infection Rel EF-C [1, 10] | Inf. rel. EF-C [1, 11] | ThT Cat. / ThT-Fluorescence (categorical) [2] | Zeta-Potential / mV [3] | other results
CEFEFQF [KB12] | low | -2.283 | -13.7 mV |  |  |  |  | Rel-to EFC (Feb-2021) ([1]; infectivity enhancement relative to EF-C (=1); Feb2021 run): 0.003272; n-fold to virus (Feb2021) ([1]; infectivity n-fold relative to virus only; Feb2021 run): 0.1375; Log10 of Rel to EFC (Feb2021) ([1]; log10 of infectivity relative to EF-C; Feb2021 run): -2.485; Tht rel to blank (42.1851851851852) ([2]; ThT fluorescence relative to blank (42.1851851851852 a.u.)): 2.788; Zeta category ( +1 = if > 4 mV;-1 = if < -4 mV; 0 = -4mV to 4 mV) [3]: -1 (-1 = if < -4 mV); Zeta Pot. / mV [3]: -24.5 mV
CKFKFPF |  |  |  | -1.6054 | 0.02 | 0 (ThT-inactive (N-Fold <2)) | -1.053 mV | Inf. rel. EF-C [1, 6]: 0.02481; Inf. rel. EF-C [1, 7]: 0.05139; Inf. rel. EF-C [1, 8]: 0.01572; Inf. rel. EF-C [1, 9]: 0.007313; Zeta pot. / mV [3]: -1.053 mV
CKIKIQIII [AR0 / F19] | high | -0.01045 | 16.2 mV |  |  |  |  | n-fold to virus (Feb2021) ([1]; Feb2021 run; infectivity n-fold relative to virus alone): 41.02; Log10 of Rel to EFC (Feb2021) ([1]; Feb2021 run; log10 of infectivity relative to EF-C): -0.01045; Rel-to EFC (Feb-2021) ([1]; Feb2021 run; n-fold infectivity relative to EF-C): 0.9762; infectivity ([1]; infectivity class (low / medium / high) of the peptide in the sequence-pattern analysis, Fig. S22-A4; class limits not given): high; Tht category (> 1.5 to blank = +) ([2]; category 1/0): 1 (ThT. Cat is 1, if Rel. ThT >2); Tht rel to blank (42.1851851851852) ([2]; relative to blank 42.1851851851852 a.u.): 4.14; Zeta category ( +1 = if > 4 mV;-1 = if < -4 mV; 0 = -4mV to 4 mV) [3]: 1 (+1 = if > 4 mV); Zeta Pot. / mV [3]: 16.2 mV
CKIKIQIRGD [psis21] | medium | -0.4842 | 7.157 mV |  |  |  |  | Tht category (> 1.5 to blank = +) ([2]; FigS26): 0 (Tht category (> 1.5 to blank = +))
CKIKIWIW |  |  |  | -0.06382 | 0.86 | 1 (ThT. Cat is 1, if Rel. ThT >2) | 19.13 mV | 
CKIWIQIY |  |  |  | -0.2415 | 0.57 | 1 (ThT. Cat is 1, if Rel. ThT >2) | 4.537 mV | 
CRFRFHFH |  |  |  | -0.2767 | 0.53 | 0 (ThT-inactive (N-Fold <2)) | 19.6 mV | 
CRLRVGVS |  |  |  | -1.362 | 0.04 | 0 (ThT-inactive (N-Fold <2)) | 10.53 mV | Inf. rel. EF-C [1, 6]: 0.04346; Inf. rel. EF-C [1, 7]: 0.06547; Inf. rel. EF-C [1, 8]: 0.03045; Inf. rel. EF-C [1, 9]: 0.03448; Zeta pot. / mV [3]: 10.53 mV
